{"source": "patent US20030220374A1", "about": "“Compositions and methods of treatment involving peroxisome proliferator-activated receptor-gamma agonists and cyclooxygenase-2 selective inhibitors” (Pharmacia Corporation, priority 2002, published 2003)", "origin": "cited, not measured here", "key": {"human lung cancer cells": {"test_system": "human lung cancer cells", "details": "through the induction of apoptosis"}, "human carotid arteries": {"test_system": "human carotid arteries", "details": "in vivo"}, "[1]": {"test_system": "hepatocellular cancer cells"}, "[2]": {"test_system": "vascular smooth muscle cell"}, "PPARγ": {"target": "T1, PPARγ (Homo sapiens, UniProt P37231)", "T1 sequence (P37231 1-505)": "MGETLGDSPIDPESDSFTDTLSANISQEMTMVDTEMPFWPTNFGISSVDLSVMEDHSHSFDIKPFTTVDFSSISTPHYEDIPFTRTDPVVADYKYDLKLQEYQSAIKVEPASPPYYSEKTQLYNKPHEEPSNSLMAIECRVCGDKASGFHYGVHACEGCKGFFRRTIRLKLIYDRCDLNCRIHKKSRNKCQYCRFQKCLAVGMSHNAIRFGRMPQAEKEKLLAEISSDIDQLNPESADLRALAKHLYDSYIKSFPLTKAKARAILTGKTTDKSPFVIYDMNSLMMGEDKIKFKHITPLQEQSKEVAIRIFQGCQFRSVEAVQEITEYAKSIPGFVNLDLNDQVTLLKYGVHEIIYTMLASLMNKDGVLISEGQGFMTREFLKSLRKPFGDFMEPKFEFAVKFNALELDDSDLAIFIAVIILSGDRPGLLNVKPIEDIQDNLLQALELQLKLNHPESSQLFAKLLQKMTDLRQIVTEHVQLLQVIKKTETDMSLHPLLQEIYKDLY"}, "[3]": {"test_system": "fibroblast growth factor-induced corneal angiogenesis", "details": "rats"}}, "data": [{"smiles": "Cc1c(C)c2c(c(C)c1O)CCC(C)(COc1ccc(CC3SC(=O)NC3=O)cc1)O2", "note": "(single isomer, unassigned; (+)) [Troglitazone, (+)-5-[[4-[(3,4-dihydro-6-hydroxy-2,5,7,8-tetramethyl-2H-1-benzopyran-2-yl)methoxy]phenyl]methyl]-2,4-thiazolidinedione]", "values": [{"measurement": "growth of human lung cancer cells", "setting": "human lung cancer cells", "result": "inhibited the growth"}, {"measurement": "hyperplasia of human carotid arteries", "setting": "human carotid arteries", "result": "decreases"}, {"measurement": "growth inhibition of hepatocellular cancer cells", "setting": "[1]", "result": "marked growth inhibition"}, {"measurement": "vascular smooth muscle cell growth", "setting": "[2]", "result": "inhibits"}]}, {"smiles": "CCCCC/C=C\\C=C1\\C(=O)C=C[C@@H]1C/C=C\\CCCC(=O)O", "note": "[15-deoxy-Δ^12,14-prostaglandin J2, 11-oxo-prosta-5Z,9,12E,14Z-tetren-1-oic acid]", "values": [{"measurement": "growth inhibition of hepatocellular cancer cells", "setting": "[1]", "result": "marked growth inhibition"}]}, {"smiles": "COc1ccc2nc(COc3ccc(CC4SC(=O)NC4=O)cc3)n(C)c2c1", "note": "(stereo not shown) [CS-011, CI-1037]", "values": [{"measurement": "EC50", "setting": "PPARγ", "result": 160, "unit": "nM"}]}, {"smiles": "Cc1ccc(-c2cc(C(F)(F)F)nn2-c2ccc(S(N)(=O)=O)cc2)cc1", "note": "[Celecoxib, 4-[5-(4-methylphenyl)-3-(trifluoromethyl)-1H-pyrazol-1-yl]benzenesulfonamide]", "values": [{"measurement": "inhibition of fibroblast growth factor-induced corneal angiogenesis", "setting": "[3]", "result": "potent inhibition"}]}]}
